In patent US9316632B2, “Methods of screening chemotherapeutic agents and treating cancer” (Marshall University Research Corporation, priority 2009, dated 2016):

How the values were obtained:
[1] = tested on: cancer stem-like cells (reoccurrence of anaplastic ependymoma); test: MTT assay, cancer stem-like cells from the reoccurrence of the Example 1 ependymoma; type: cell-based, human; details: reoccurrence biopsy, FIG. 6
Method: (§1) Three-Dimensional Bioreactor Cell Culture. A hydrodynamic focusing bioreactor (HFB) (Celdyne, Houston Tex.) was used as previously described to proliferate cancer stem-like cells. Culture media, oxygenation, speed, temperature and CO2 were kept consistently constant for ten days. In certain instances, cancer stem-like cells were cultured in the HFB and exposed for 2 to 6 hours with ozone (O3) levels at levels of 0.08 to 0.40 PPM to cause a fluctuation in the cellular redox environment (redox cycle). Ozone was generated with two OREC Model OZONEV1-O ozonizers (Ozone Research and Equipment Corp., Phoenix, Ariz.), with compressed air used as a source of oxygen, and the concentration of ozone within the chambers was monitored throughout the exposure with three Dasibi 1003 AH ambient-air ozone monitors (Dasibi Environmental Corp., Glendale, Calif.). Cells were then counted and 1×10^6 cells were placed in the rotating vessel set at 25 rpm with airflow set at 20% for […]. Cells were then removed and counted again using trypan blue exclusion to determine cellular viability and cell number and plated in 96 wells for chemosensitivity testing. The cells were also reacted with florescent antibodies for phenotypic characterization.
(§2) Chemosensitivity assay. Sensitivity and resistance to chemotherapy was assessed using an MTT assay on 1×10^3 cells plated in 5 replicas into 96-well plates. […]

[2] = tested on: bulk cancer cells (anaplastic ependymoma, WHO grade III); test: MTT assay, bulk cancer cells, Example 2 anaplastic ependymoma; type: cell-based, human; details: FIG. 9
Method: (§3) Chemosensitivity assay. Sensitivity and resistance to chemotherapy was assessed using an MTT assay on 1×10^3 cells plated in 5 replicas into 96-well plates. Briefly, equal number of bulk of tumor cells grown in monolayer and cancer stem-like cells CD133(+) three-dimensionally grown in the bioreactor, were plated separately in 96-well dishes and incubated at 37° C. for 24-hours. Then the cells were challenged for a 1-hour pulse with a panel of anticancer drugs as indicated by the oncologist. Each anticancer drug was tested in a range of doses including the clinically relevant dose. An MTT assay was performed 24-hours following chemotherapy treatment to assess cell viability as previously described. A dose response chart was developed in which samples were scored as responsive (60-100% cell kill), moderately responsive (40-60% cell kill), low to moderate responsive (20-40% cell kill), low responsive (10-20% cell kill), and non-responsive (0-10% cell kill).
(§4) Similar to the experiments described herein above, the cancer cell sample was initially cultured as a suspension and the cancer cells were immunophenotyped by flow cytometer using anti-CD133 (Milteny Biotech, Auburn, Calif.), -CD34 (Milteny Biotech, Auburn, Calif.), -CD38 (Milteny Biotech, Auburn, Calif.), -CD44 (BD Bioscience, Sparks, Md.), -CD24 (Milteny Biotech, Auburn, Calif.), -CXCR4 (Milteny Biotech, Auburn, Calif.), -OCT3/4 (BD Bioscience, Sparks, Md.), and -Nanog (BD Bioscience, Sparks, Md.).
(§5) Then, to then expand the immature cancer stem-like cell population of CD133+ cells present within the ependymoma primary culture, the ependymoma cells were grown in a rotating vessel, as describe herein above and as previously described. To assess the efficacy of various chemotherapeutic agents on the cancer cell sample, an MTT assay was the performed as also described herein.

[3] = tested on: cancer stem-like cells (anaplastic ependymoma, WHO grade III); test: MTT assay, cancer stem-like cells, Example 2 anaplastic ependymoma; type: cell-based, human; details: FIG. 9
Method: as §1, §3, §4, §5

[4] = tested on: bulk cancer cells (reoccurrence of anaplastic ependymoma); test: MTT assay, bulk cancer cells from the reoccurrence of the Example 1 ependymoma; type: cell-based, human; details: reoccurrence biopsy, FIG. 6
Method: as §3

[5] = tested on: CD133(+) cancer stem-like cells grown in the HFB (ependymoma); test: MTT chemosensitivity assay, cancer stem-like cells of the Example 1 ependymoma sample; type: cell-based, human; details: 1-hour pulse, MTT 24-hours after treatment, FIG. 5
Method: as §1, §3
To then expand the immature cancer stem-like cell population of CD 133+ cells present within the ependymoma primary culture, the ependymoma cells were grown in a rotating vessel, as previously described. Briefly, 1×10^6 of the ependymoma cells from a monolayer culture were grown for ten days using a Hydrodynamic Focusing Bioreactor (HFB) (Celdyne, Houston, Tex.) at 25 rpm with airflow set at 20%, and culture media, oxygenation, speed, temperature and CO2 were kept consistently constant for ten day period. Following the ten day period, cells were then removed and counted again from the HFB, and trypan blue exclusion was used to determine cellular viability and cell number. The cells were also reacted with florescent antibodies for phenotypic characterization.
(§6) To assess the efficacy of various chemotherapeutic agents on the cancer cell sample collected in Example 2, an MTT assay was performed on […] plated in 5 replicas into 96-well plates. Briefly, equal number of the bulk cancer cells grown in a monolayer and the CD133(+) cancer stem-like cells grown in the HFB were plated separately in 96-well dishes and incubated at 37° C. for 24-hours. Then, each of the cell cultures were challenged for a 1-hour pulse with various chemotherapeutic agents, including cisplatin, oxaliplatin, arabinoside-C, VP-16, busulfan, methotrexate, CPT-11, and doxorubicin. Each chemotherapeutic agent was tested in a range of doses including their respective clinically relevant doses.

[6] = tested on: ependymoma cells grown in a monolayer (bulk cancer cells); test: MTT chemosensitivity assay, bulk cancer cells of the Example 1 ependymoma sample; type: cell-based, human; details: 1-hour pulse, MTT 24-hours after treatment, FIG. 5
Method: Single Cell Suspension and Primary Cell Culture. Single-cell suspensions from the ependymoma biopsy was prepared using the gentleMACS™ Dissociator (Miltenyi, Auburn, Calif.), and C Tubes using a standardized, semi-automated protocol based on a combination of mechanical tissue disruption and incubation with a 50% solution 0.025% trypsin and Accutase (Innovative Cell Technologies, San Diego, Calif.). Cells were serially plated in 24-well, 12-well, 6-well, 10-cm treated dishes and cultured to subconfluence in RPMI-1640 medium supplemented with 5% irradiated, heat inactivated, defined fetal bovine serum (Thermofisher/Hyclone), and 50 U of penicillin and 5 μg of streptomycin/mL of medium (Thermofisher/Mediatech).
as §3, §6
The MTT assay was then performed 24-hours following the chemotherapy treatment to assess cell viability. A dose response chart was developed in which samples were scored as responsive (60-100% cell kill), moderately responsive (40-60% cell kill), low to moderate responsive (20-40% cell kill), low responsive (10-20% cell kill), and non-responsive (0-10% cell kill). This assessment was independently performed for both the bulk cancer cells and the cancer stem-like cells of the ependymoma cancer cell sample.

medulloblastoma cells = test: MTT assay, Example 5 medulloblastoma cells; type: cell-based, human; details: FIG. 15
Method: as §3

[7] = tested on: cancer stem-like cells (IDH-1 negative glioblastoma); test: MTT assay, cancer stem-like cells, Example 3 IDH-1 negative glioblastoma; type: cell-based, human; details: at the concentration tested, FIG. 11
Method: as §1, §2

[8] = tested on: cancer stem-like cells (IDH-1 negative glioblastoma, WHO grade IV); test: MTT assay, cancer stem-like cells, Example 4 IDH-1 negative glioblastoma; type: cell-based, human; details: FIG. 13
Method: as §1, §2

[9] = tested on: bulk cancer cells (IDH-1 negative glioblastoma); test: MTT assay, bulk cancer cells, Example 3 IDH-1 negative glioblastoma; type: cell-based, human; details: FIG. 11
Method: as §3

[10] = tested on: bulk cancer cells (IDH-1 negative glioblastoma, WHO grade IV); test: MTT assay, bulk cancer cells, Example 4 IDH-1 negative glioblastoma; type: cell-based, human; details: FIG. 13
Method: as §3

[11] = tested on: intradural, extramedullary anaplastic diffuse spinal ependymoma, WHO grade III; test: Clinical course of the Example 1 subject under treatment; type: in vivo, human; details: recurring spinal ependymoma

Row | Compound | sensitivity to chemotherapy (MTT cell viability) [2] | sensitivity to chemotherapy (MTT cell viability) [3] | sensitivity to chemotherapy (MTT cell viability) [5] | sensitivity to chemotherapy (MTT cell viability) [6] | other results
1 | S=C=NCc1ccccc1 [BITC, benzyl isothiocyanate] | not sensitive | not sensitive | – | – | sensitivity to chemotherapy (MTT cell viability) [1]: sensitive; sensitivity to chemotherapy (MTT cell viability) [4]: sensitive
2 | CCc1c2c(nc3ccc(OC(=O)N4CCC(N5CCCCC5)CC4)cc13)-c1cc3c(c(=O)n1C2)COC(=O)[C@]3(O)CC [CPT-11, irinotecan] | not sensitive | not sensitive | moderate chemosensitivity | sensitive | –
3 | COc1cc([C@@H]2c3cc4c(cc3[C@@H](O[C@@H]3O[C@@H]5CO[C@@H](C)O[C@H]5[C@H](O)[C@H]3O)[C@H]3COC(=O)[C@H]23)OCO4)cc(OC)c1O [VP-16, etoposide] | – | – | completely not responsive | completely not responsive | effectiveness at treating the medulloblastoma cells (MTT) (medulloblastoma cells): effective
4 | Nc1ccn([C@@H]2O[C@H](CO)[C@@H](O)[C@@H]2O)c(=O)n1 [arabinoside-C] | – | – | completely not responsive | completely not responsive | –
5 | CS(=O)(=O)OCCCCOS(C)(=O)=O [busulfan] | – | – | minimally to moderately responsive | minimally to moderately responsive | –
6 | N.N.[Cl][Pt][Cl] [cisplatin] | – | – | moderate chemosensitivity | sensitive | cell kill [2]: 30%; cell kill [3]: 30%
7 | COc1cccc2c1C(=O)c1c(O)c3c(c(O)c1C2=O)C[C@@](O)(C(=O)CO)C[C@@H]3O[C@H]1C[C@H](N)[C@H](O)[C@H](C)O1 [doxorubicin] | – | – | highly sensitive | sensitive | –
8 | O=NN(CCCl)C(=O)NC1CCCCC1 [lomustine] | not sensitive | not sensitive | – | – | –
9 | CN(Cc1cnc2nc(N)nc(N)c2n1)c1ccc(C(=O)N[C@@H](CCC(=O)O)C(=O)O)cc1 [methotrexate] | – | – | minimally to moderately responsive | minimally to moderately responsive | –
10 | O=C1[O][Pt]2([NH][C@@H]3CCCC[C@H]3[NH]2)[O]C1=O [oxaliplatin] | not sensitive | not sensitive | completely not responsive | completely not responsive | –
11 | CNNCc1ccc(C(=O)NC(C)C)cc1 [procarbazine] | – | – | – | – | cell kill [2]: 30%; cell kill [3]: 30%
12 | Cn1nnc2c(C(N)=O)ncn2c1=O [temozolomide] | – | – | – | – | response score (MTT cell viability) [7]: non-responsive (non-responsive (0-10% cell kill)); cell kill [8]: 60%; cell kill [9]: 50%; cell kill [10]: 60%; clinical response of the tumor to treatment [11]: no response
13 | bevacizumab | not sensitive | not sensitive | – | – | –
